Experimental data from patent US20220088102A1, “CROTON LECHLERI COMPOSITIONS AND THEIR USE IN THE TREATMENT OF CYSTIC FIBROSIS” (priority 2020, published 2022).
Converted amounts (≈) assume the structure as drawn. Where two headings read alike, the source gives them in different places. Each block holds one compound with its values, some of them ahead of it.

Legend:
[1] = test system: methicillin-susceptible Staphylococcus aureus (MSSA) strains; test: In vitro MIC and MBC assay, strain panel (Example 3); format: cell-based; conditions: for MIC (% relative to amount in AB-101): 50% = 10 μg/mL taspine
From the text: (§1) Measures included the minimum inhibitory concentration (MIC) which is the lowest concentration of AB-101 that prevents visible growth of the bacterium or pathogen, and minimum bactericidal concentration (MBC) which is the lowest concentration of an antibacterial agent required to kill a bacterium.

[2] = test system: methicillin-resistant Staphylococcus aureus (MRSA) strains; test: as above; format: cell-based; conditions: for MIC: MRSA (Table 13); for MBC (% relative to amount in AB-101) / MIC (% relative to amount in AB-101): MRSA; for MIC (% relative to amount in AB-101): 50% = 10 μg/mL taspine
From the text: as §1

[3] = Log P analysis (partition coefficient, water and n-Octanol)
From the text: (§2) All reference to skin includes references to epithelial skin and epithelial layer of the lungs, nose, mouth and throat. IVPT is a flux measurement that is common to those skilled in the art to evaluate topical drugs inclusive to topical delivery to the lungs, nose, mouth and throat.
Log P is an assessment of a molecule's lipophilicity, indicating how readily an analyte can partition between aqueous and organic phases. […] To reach high systemic levels, a topical drug must be permeable enough, which is defined as lipophilic enough, to partition into the lipid bilayer of the skin, but, not so lipophilic that once it is in the skin bilayer it will stay sequestered there. Lipophilicity plays a major role in determining where drugs are distributed within the body after absorption into tissues and, as a consequence, in how rapidly they are metabolized and excreted.
The Log P value is a constant defined in the following manner: Log P=log 10 (Partition Coefficient) Partition Coefficient, P=[organic]/[aqueous] Where [ ] indicates the concentration of solute in the organic and aqueous partition. […] Although log P is a constant, its value is dependent on the choice of the organic partitioning solvent and, to a lesser degree, on the conditions of measurement.

[4] = In vitro Permeation Test (IVPT), Franz diffusion cell, Strat-M membranes
From the text: as §2

DNA of the cells = conditions: Chen 1994, cited from earlier work; for healing effects: in the Ecuadorian sap
wound healing = conditions: in vivo in rats, Pieters et al 1995; cited from earlier work
[5] = strain ATCC 29213, QC control (Table 13)
[6] = strain CDC 461, MupirocinS, MSSA (Table 13)
[7] = strain CDC 463, MupirocinS, MSSA (Table 13)
[8] = component of AB-101, 100%, Batch 0
[9] = component of AB-101, 100%, Batch 1
[10] = component of AB-101, 100%, Batch 2
[11] = component of AB-101, 100%, Batch X
[12] = component of AB-101 Lyophilized & Resuspended, Batch 0
[13] = component of AB-101 Lyophilized & Resuspended, Batch 1
[14] = component of AB-101 Lyophilized & Resuspended, Batch 2
[15] = component of AB-101 Lyophilized & Resuspended, Batch X
[16] = component permeating from AB-101 100% Lot 1
[17] = component permeating from AB-101 100% Lot X
[18] = highest concentration tested 50% relative to AB-101 = 10 μg/mL taspine
[19] = strain 1674606, MupirocinR, MSSA
[20] = strain 1674608, MupirocinR, MSSA
[21] = strain CDC 461, MupirocinS, MSSA
[22] = strain CDC 462, MupirocinS, MSSA
[23] = strain CDC 463, MupirocinS, MSSA
[24] = strain CDC 464, MupirocinS, MSSA
[25] = strain CDC 484, MupirocinS, MSSA
[26] = strain CDC 485, MupirocinS, MSSA

MIC ([1]; Staphylococcus aureus, MSSA, strain 1674606, MupirocinR, MSSA, read-out: MIC): > 256000 ng/mL
MIC ([1]; Staphylococcus aureus, MSSA, strain 1674608, MupirocinR, MSSA, read-out: MIC): > 256000 ng/mL
MIC ([1]; Staphylococcus aureus, MSSA, strain CDC 463, MupirocinS, MSSA, read-out: MIC): 250 to 500 ng/mL (≈ 499 to 999 nM)
MIC ([1]; Staphylococcus aureus, MSSA, strain CDC 484, MupirocinS, MSSA, read-out: MIC): ≤ 250 ng/mL
MIC ([1]; Staphylococcus aureus, MSSA, strain CDC 485, MupirocinS, MSSA, read-out: MIC): ≤ 250 ng/mL
MIC [1, 5]: ≤0.00025 to 0.0005 ng/mL
MIC [1, 6]: ≤0.00025 to 0.001 ng/mL
MIC [1, 7]: ≤0.00025 to 0.0005 ng/mL
MIC ([2]; strain CDC 227, MupirocinS): ≤0.25 to 0.5 pg/mL
Compound: C/C(=C\C(=O)OCCCCCCCCC(=O)O)C[C@@H]1OC[C@H](C[C@@H]2O[C@H]2[C@@H](C)[C@H](C)O)[C@@H](O)[C@H]1O [Mupirocin]

Compound: Oc1cc(O)c2c(c1)O[C@H](c1cc(O)c(O)c(O)c1)[C@H](O)C2 [Epigallocatcchin]
LogP [3, 8]: −0.79
LogP [3, 9]: 0.27
LogP [3, 10]: 0.86
LogP [3, 11]: 1.82
LogP [3, 12]: 1.20
LogP [3, 13]: −0.11
LogP [3, 14]: −1.71
LogP [3, 15]: −0.55

Compound: Oc1cc(O)c2c(c1)O[C@H](c1cc(O)c(O)c(O)c1)[C@@H](O)C2 [Gallocatechin, gallocatechin]
Flux (J) [4, 16]: 18.25 ug/cm^2/hr
Flux (J) [4, 17]: 4.33 ug/cm^2/hr
effect on cell proliferation (DNA of the cells): slightly stimulating to cell proliferation

Compound: COc1ccc2c(=O)oc3c(OC)cc(CCN(C)C)c4c(=O)oc1c2c34 [Taspin]
LogP [3, 8]: −1.15
LogP [3, 9]: −1.76
LogP [3, 10]: −0.90
LogP [3, 11]: −0.31
LogP [3, 12]: −1.06
LogP [3, 13]: −0.94
LogP [3, 14]: −1.71
LogP [3, 15]: −0.07

Compound: catechin
effect on cell proliferation (DNA of the cells): showed little effect

Compound: Oc1cc(O)c2c(c1)O[C@H](c1cc(O)c(O)c(O)c1)[C@H](O)C2 [Epigallocatechin, epigallocatechin]
Flux (J) [4, 16]: 503.51 ug/cm^2/hr
Flux (J) [4, 17]: 57.09 ug/cm^2/hr
effect on cell proliferation (DNA of the cells): slightly stimulating to cell proliferation

MIC ([1]; strain 1674606, MupirocinR, MSSA (Table 13)): 0.002 to 0.008 ng/mL
MIC ([1]; strain 1674608, MupirocinR, MSSA (Table 13)): 0.002 to 0.004 ng/mL
MIC [1, 5]: 0.001 to 0.002 ng/mL
MIC [1, 6]: 0.004 to 0.008 ng/mL
MIC [1, 7]: 0.008 to 0.016 ng/mL
MIC ([1]; strain CDC 485, MupirocinS, MSSA (Table 13)): 0.002 to 0.004 ng/mL
MIC ([2]; strain CDC 480, MupirocinS): 32 to 64 pg/mL
MIC ([2]; strain CDC 481, MupirocinS): 16 to 32 pg/mL
MIC ([2]; strain CDC 482, MupirocinS): 8 to 32 pg/mL
Compound: COc1cccc(OC)c1C(=O)N[C@@H]1C(=O)N2[C@@H]1SC(C)(C)[C@@H]2C(=O)O [Methicillin]

Compound: COc1ccc([C@H]2Oc3c(OC)cc(CCCO)cc3[C@@H]2CO)cc1OC [dimethylcedrusin, 3′,4-0-dimethylcedrusin]
healing effects (DNA of the cells): showed little healing effects
wound healing activity (wound healing): improved wound healing in vivo

Compound: epicatechin
effect on cell proliferation (DNA of the cells): showed little effect

Compound: COc1ccc2c(=O)oc3c(OC)cc(CCN(C)C)c4c(=O)oc1c2c34 [Taspine, taspine]
healing effects (DNA of the cells): showed little healing effects
activity as evaluated by this invitro test method (MIC, MBC) [1, 18]: does not have activity
MBC (% relative to amount in AB-101) [1, 19]: >50 % relative to amount in AB-101
MIC (% relative to amount in AB-101) [1, 19]: >50 % relative to amount in AB-101
MBC (% relative to amount in AB-101) [1, 20]: >50 % relative to amount in AB-101
MIC (% relative to amount in AB-101) [1, 20]: >50 % relative to amount in AB-101
MBC (% relative to amount in AB-101) ([1]; strain ATCC 29213, QC control): >50 % relative to amount in AB-101
MIC (% relative to amount in AB-101) ([1]; strain ATCC 29213, QC control): >50 % relative to amount in AB-101
MBC (% relative to amount in AB-101) [1, 21]: >50 % relative to amount in AB-101
MIC (% relative to amount in AB-101) [1, 21]: >50 % relative to amount in AB-101
MBC (% relative to amount in AB-101) [1, 22]: >50 % relative to amount in AB-101
MIC (% relative to amount in AB-101) [1, 22]: >50 % relative to amount in AB-101
MBC (% relative to amount in AB-101) [1, 23]: >50 % relative to amount in AB-101
MIC (% relative to amount in AB-101) [1, 23]: >50 % relative to amount in AB-101
MBC (% relative to amount in AB-101) [1, 24]: >50 % relative to amount in AB-101
MIC (% relative to amount in AB-101) [1, 24]: >50 % relative to amount in AB-101
MBC (% relative to amount in AB-101) [1, 25]: >50 % relative to amount in AB-101
MIC (% relative to amount in AB-101) [1, 25]: >50 % relative to amount in AB-101
MBC (% relative to amount in AB-101) [1, 26]: >50 % relative to amount in AB-101
MIC (% relative to amount in AB-101) [1, 26]: >50 % relative to amount in AB-101
activity as evaluated by this invitro test method (MIC, MBC) [2, 18]: does not have activity
MBC (% relative to amount in AB-101) ([2]; strain 1674607, MupirocinR): >50 % relative to amount in AB-101
MIC (% relative to amount in AB-101) ([2]; strain 1674607, MupirocinR): >50 % relative to amount in AB-101
MBC (% relative to amount in AB-101) ([2]; strain 1674611, MupirocinR): >50 % relative to amount in AB-101
MIC (% relative to amount in AB-101) ([2]; strain 1674611, MupirocinR): >50 % relative to amount in AB-101
MBC (% relative to amount in AB-101) ([2]; strain CDC 218, MupirocinR): >50 % relative to amount in AB-101
MIC (% relative to amount in AB-101) ([2]; strain CDC 218, MupirocinR): >50 % relative to amount in AB-101
MBC (% relative to amount in AB-101) ([2]; strain CDC 220, MupirocinS): >50 % relative to amount in AB-101
MIC (% relative to amount in AB-101) ([2]; strain CDC 220, MupirocinS): >50 % relative to amount in AB-101
MBC (% relative to amount in AB-101) ([2]; strain CDC 224, MupirocinR): >50 % relative to amount in AB-101
MIC (% relative to amount in AB-101) ([2]; strain CDC 224, MupirocinR): >50 % relative to amount in AB-101
MBC (% relative to amount in AB-101) ([2]; strain CDC 227, MupirocinS): >50 % relative to amount in AB-101
MIC (% relative to amount in AB-101) ([2]; strain CDC 227, MupirocinS): >50 % relative to amount in AB-101
MBC (% relative to amount in AB-101) ([2]; strain CDC 228, MupirocinR): >50 % relative to amount in AB-101
MIC (% relative to amount in AB-101) ([2]; strain CDC 228, MupirocinR): >50 % relative to amount in AB-101
MBC (% relative to amount in AB-101) ([2]; strain CDC 480, MupirocinS): >50 % relative to amount in AB-101
MIC (% relative to amount in AB-101) ([2]; strain CDC 480, MupirocinS): >50 % relative to amount in AB-101
MBC (% relative to amount in AB-101) ([2]; strain CDC 481, MupirocinS): >50 % relative to amount in AB-101
MIC (% relative to amount in AB-101) ([2]; strain CDC 481, MupirocinS): >50 % relative to amount in AB-101
MBC (% relative to amount in AB-101) ([2]; strain CDC 482, MupirocinS): >50 % relative to amount in AB-101
MIC (% relative to amount in AB-101) ([2]; strain CDC 482, MupirocinS): >50 % relative to amount in AB-101
MBC (% relative to amount in AB-101) ([2]; strain CDC 483, MupirocinS): >50 % relative to amount in AB-101
MIC (% relative to amount in AB-101) ([2]; strain CDC 483, MupirocinS): >50 % relative to amount in AB-101
